# What was measured:
# Axl [1] = molecular target: T1, Axl (Homo sapiens, UniProt P30530); experiment: HTRF KinEASE-TK biochemical potency, AXL; set-up: purchased Invitrogen; conditions: 5 nM AXL, 700 μM ATP
# T1 sequence (P30530 26-894): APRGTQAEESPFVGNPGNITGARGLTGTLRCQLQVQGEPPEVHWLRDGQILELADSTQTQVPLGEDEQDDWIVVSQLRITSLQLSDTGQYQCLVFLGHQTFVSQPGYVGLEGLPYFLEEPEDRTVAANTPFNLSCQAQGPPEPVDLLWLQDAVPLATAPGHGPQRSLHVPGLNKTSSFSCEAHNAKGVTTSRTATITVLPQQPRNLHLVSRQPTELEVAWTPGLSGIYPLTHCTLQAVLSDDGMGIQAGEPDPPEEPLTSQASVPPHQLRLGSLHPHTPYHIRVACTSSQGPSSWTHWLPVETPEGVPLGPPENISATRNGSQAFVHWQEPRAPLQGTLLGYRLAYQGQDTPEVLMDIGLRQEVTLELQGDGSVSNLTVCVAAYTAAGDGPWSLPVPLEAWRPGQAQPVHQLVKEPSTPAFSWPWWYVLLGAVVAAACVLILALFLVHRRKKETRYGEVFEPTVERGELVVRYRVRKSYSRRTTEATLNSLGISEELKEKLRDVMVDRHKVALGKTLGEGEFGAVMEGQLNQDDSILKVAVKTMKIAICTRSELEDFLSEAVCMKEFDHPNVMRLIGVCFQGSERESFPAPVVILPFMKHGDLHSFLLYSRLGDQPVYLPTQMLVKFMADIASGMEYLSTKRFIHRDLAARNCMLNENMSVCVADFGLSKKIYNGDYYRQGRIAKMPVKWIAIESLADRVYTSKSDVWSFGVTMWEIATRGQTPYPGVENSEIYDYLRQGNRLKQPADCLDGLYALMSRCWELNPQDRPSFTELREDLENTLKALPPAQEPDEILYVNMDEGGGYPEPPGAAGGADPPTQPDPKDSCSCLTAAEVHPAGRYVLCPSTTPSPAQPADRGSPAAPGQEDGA
# Method in brief: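 Enzyme preincubated with compound 1 h at RT; final 5 nM AXL or 1 nM TYRO3/MER, 800 nM TK substrate-biotin, 700 μM ATP, HEPES pH 7.4, MgCl2, 1% DMSO, 2 h at RT. HTRF 665/620 ratio read after streptavidin-XL665/cryptate antibody detection; percent activity relative to DMSO and pre-stopped controls.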
# Axl [2] = molecular target: T1, Axl; experiment: Axl NanoBRET intracellular kinase assay (Cell Binding); set-up: host or cells: HEK-293; conditions: HEK-293 cells transfected with Axl-NanoLuc fusion vector; displacement of K-5 NanoBRET tracer
# Method in brief: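 HEK-293 cells transiently transfected with Axl-NanoLuc fusion the day before were pre-incubated with compound for 1 h at 37 °C, 5% CO2 (0.5% DMSO), then with 0.35 μM K-5 NanoBRET tracer for 2 h. Tracer displacement was read as the 610/450 nm BRET ratio; IC50 from 4-parameter fit.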
SMILES,IC50 (Axl [1]),IC50 (Axl [2])
"Cc1c(-c2n[nH]c3ncc(-c4ccc5c(c4)CCC(N4CCC[C@H]4C)CC5)cc23)ccc2c1OCCNC2=O (stereo partly drawn) [Example 41, 9-Methyl-8-(5-{7-[(2R)-2-methylpyrrolidin-1-yl]-6,7,8,9-tetrahydro-5H-benzo[7]annulen-2-yl}-1H-pyrazolo[3,4-b]pyridin-3-yl)-2,3,4,5-tetrahydro-1,4-benzoxazepin-5-one]",< 100 nM,< 100 nM
"O=C1NCCOc2cc(-c3n[nH]c4ncc(-c5ccc6c(c5)CCC(NC5CCCC5)CC6)cc34)ccc21 (stereo not shown) [Example 42, 8-{5-[7-(Cyclopentylamino)-6,7,8,9-tetrahydro-5H-benzo[7]annulen-2-yl]-1H-pyrazolo[3,4-b]pyridin-3-yl}-2,3,4,5-tetrahydro-1,4-benzoxazepin-5-one]",< 100 nM,< 100 nM
"C[C@H]1CCCN1C1CCc2ccc(-c3cnc4[nH]nc(-c5ccc6c(c5)OCCNC6=O)c4c3)cc2CC1 (stereo partly drawn) [Example 43, 8-(5-{7-[(2S)-2-Methylpyrrolidin-1-yl]-6,7,8,9-tetrahydro-5H-benzo[7]annulen-2-yl}-1H-pyrazolo[3,4-b]pyridin-3-yl)-2,3,4,5-tetrahydro-1,4-benzoxazepin-5-one]",< 100 nM,< 100 nM
"C[C@@H]1CCCN1C1CCc2ccc(-c3cnc4[nH]nc(-c5ccc6c(c5)OCCNC6=O)c4c3)cc2CC1 (stereo partly drawn) [Example 44, 8-(5-{7-[(2R)-2-Methylpyrrolidin-1-yl]-6,7,8,9-tetrahydro-5H-benzo[7]annulen-2-yl}-1H-pyrazolo[3,4-b]pyridin-3-yl)-2,3,4,5-tetrahydro-1,4-benzoxazepin-5-one]",< 100 nM,< 100 nM
"O=C1NCCOc2cc(-c3n[nH]c4ncc(-c5ccc6c(c5)CCC(N[C@H]5CCOC5)CC6)cc34)ccc21 (stereo partly drawn) [Example 45, 8-[5-(7-{[(3S)—Oxolan-3-yl]amino}-6,7,8,9-tetrahydro-5H-benzo[7]annulen-2-yl)-1H-pyrazolo[3,4-b]pyridin-3-yl]-2,3,4,5-tetrahydro-1,4-benzoxazepin-5-one]",< 100 nM,< 100 nM
"O=C1NCCOc2cc(-c3n[nH]c4ncc(-c5ccc6c(c5)CCC(N[C@@H]5CCOC5)CC6)cc34)ccc21 (stereo partly drawn) [Example 46, 8-[5-(7-{[(3R)—Oxolan-3-yl]amino}-6,7,8,9-tetrahydro-5H-benzo[7]annulen-2-yl)-1H-pyrazolo[3,4-b]pyridin-3-yl]-2,3,4,5-tetrahydro-1,4-benzoxazepin-5-one]",< 100 nM,< 100 nM
"O=C1NCCOc2cc(-c3n[nH]c4ncc(-c5ccc6c(c5)CCC(N5CCOCC5)CC6)cc34)ccc21 (stereo not shown) [Example 47, 8-{5-[7-(Morpholin-4-yl)-6,7,8,9-tetrahydro-5H-benzo[7]annulen-2-yl]-1H-pyrazolo[3,4-b]pyridin-3-yl}-2,3,4,5-tetrahydro-1,4-benzoxazepin-5-one]",< 100 nM,< 100 nM
"O=C1NCCOc2cc(-c3n[nH]c4ncc(-c5ccc6c(c5)CCC(N5CCNCC5)CC6)cc34)ccc21 (stereo not shown) [Example 48, 8-{5-[7-(Piperazin-1-yl)-6,7,8,9-tetrahydro-5H-benzo[7]annulen-2-yl]-1H-pyrazolo[3,4-b]pyridin-3-yl}-2,3,4,5-tetrahydro-1,4-benzoxazepin-5-one]",< 100 nM,100 to 1000 nM
"O=C1NCCOc2cc(-c3n[nH]c4ncc(-c5ccc6c(c5)CCC(N5CCC[C@@H]5CO)CC6)cc34)ccc21 (stereo partly drawn) [Example 49, 8-(5-{7-[(2R)-2-(Hydroxymethyl)pyrrolidin-1-yl]-6,7,8,9-tetrahydro-5H-benzo[7]annulen-2-yl}-1H-pyrazolo[3,4-b]pyridin-3-yl)-2,3,4,5-tetrahydro-1,4-benzoxazepin-5-one]",< 100 nM,< 100 nM
"O=C1NCCOc2cc(-c3n[nH]c4ncc(-c5ccc6c(c5)CCC(N5CCC[C@H]5CO)CC6)cc34)ccc21 (stereo partly drawn) [Example 50, 8-(5-{7-[(2S)-2-(Hydroxymethyl)pyrrolidin-1-yl]-6,7,8,9-tetrahydro-5H-benzo[7]annulen-2-yl}-1H-pyrazolo[3,4-b]pyridin-3-yl)-2,3,4,5-tetrahydro-1,4-benzoxazepin-5-one]",< 100 nM,< 100 nM
"O=C1NCCOc2cc(-c3n[nH]c4ncc(-c5ccc6c(c5)CCC(N5CC[C@@H](O)C5)CC6)cc34)ccc21 (stereo partly drawn) [Example 51, 8-(5-(7-((R)-3-Hydroxypyrrolidin-1-yl)-6,7,8,9-tetrahydro-5H-benzo[7]annulen-2-yl)-1H-pyrazolo[3,4-b]pyridin-3-yl)-3,4-dihydrobenzo[f][1,4]oxazepin-5(2H)-one]",< 100 nM,100 to 1000 nM
"O=C1NCCOc2cc(-c3n[nH]c4ncc(-c5ccc6c(c5)CCC(N5CCC5)CC6)cc34)ccc21 (stereo not shown) [Example 52, 8-(5-(7-(Azetidin-1-yl)-6,7,8,9-tetrahydro-5H-benzo[7]annulen-2-yl)-1H-pyrazolo[3,4-b]pyridin-3-yl)-3,4-dihydrobenzo[f][1,4]oxazepin-5(2H)-one]",< 100 nM,< 100 nM
"O=C1NCCOc2cc(-c3n[nH]c4ncc(-c5ccc6c(c5)CCNCC6)cc34)ccc21 [Example 53, 8-(5-(2,3,4,5-Tetrahydro-1H-benzo[d]azepin-7-yl)-1H-pyrazolo[3,4-b]pyridin-3-yl)-3,4-dihydrobenzo[f][1,4]oxazepin-5(2H)-one]",< 100 nM,100 to 1000 nM

# Results, then the compound that gave them:
IC50 (Axl [1]),IC50 (Axl [2]),SMILES
< 100 nM,< 100 nM,"CC1(C)NS(=O)(=O)c2cc(-c3n[nH]c4ncc(-c5ccc6c(c5)CCC(N5CCC[C@@H]5CO)CC6)cc34)ccc21 (stereo partly drawn) [Example 34, 6-(5-{7-[(2R)-2-(Hydroxymethyl)pyrrolidin-1-yl]-6,7,8,9-tetrahydro-5H-benzo[7]annulen-2-yl}-1H-pyrazolo[3,4-b]pyridin-3-yl)-3,3-dimethyl-2,3-dihydro-1λ^6,2-benzothiazole-1,1-dione]"
< 100 nM,< 100 nM,"CC1(C)COc2cc(-c3n[nH]c4ncc(-c5ccc6c(c5)CCC(N5CCCC5)CC6)cc34)ccc2C(=O)N1 (stereo not shown) [Example 35, 3,3-Dimethyl-8-{5-[7-(pyrrolidin-1-yl)-6,7,8,9-tetrahydro-5H-benzo[7]annulen-2-yl]-1H-pyrazolo[3,4-b]pyridin-3-yl}-2,3,4,5-tetrahydro-1,4-benzoxazepin-5-one]"
< 100 nM,< 100 nM,"C[C@@H]1CCCN1C1CCc2ccc(-c3cnc4[nH]nc(-c5ccc6c(c5)OCC5(CC5)NC6=O)c4c3)cc2CC1 (stereo partly drawn) [Example 36, 8-(5-{7-[(2R)-2-Methylpyrrolidin-1-yl]-6,7,8,9-tetrahydro-5H-benzo[7]annulen-2-yl}-1H-pyrazolo[3,4-b]pyridin-3-yl)-4,5-dihydro-2H-spiro[1,4-benzoxazepine-3,1′-cyclopropan]-5-one]"
< 100 nM,< 100 nM,"C[C@@H]1CCCN1C1CCc2ccc(-c3cnc4[nH]nc(-c5ccc6c(c5)OCC5(CCC5)NC6=O)c4c3)cc2CC1 (stereo partly drawn) [Example 37, 8-(5-{7-[(2R)-2-Methylpyrrolidin-1-yl]-6,7,8,9-tetrahydro-5H-benzo[7]annulen-2-yl}-1H-pyrazolo[3,4-b]pyridin-3-yl)-4,5-dihydro-2H-spiro[1,4-benzoxazepine-3,1′-cyclobutan]-5-one]"
< 100 nM,< 100 nM,"C[C@@H]1CCCN1C1CCc2ccc(-c3cnc4[nH]nc(-c5ccc6c(c5)C(=O)NC6(C)C)c4c3)cc2CC1 (stereo partly drawn) [Example 38, 3,3-Dimethyl-6-(5-{7-[(2R)-2-methylpyrrolidin-1-yl]-6,7,8,9-tetrahydro-5H-benzo[7]annulen-2-yl}-1H-pyrazolo[3,4-b]pyridin-3-yl)-2,3-dihydro-1H-isoindol-1-one]"
< 100 nM,< 100 nM,"C[C@H]1CCCN1C1Cc2ccc(-c3cnc4[nH]nc(-c5ccc6c(c5)OCC(C)(C)NC6=O)c4c3)cc2C1 (stereo partly drawn) [Example 39, 3,3-Dimethyl-8-(5-{2-[(2S)-2-methylpyrrolidin-1-yl]-2,3-dihydro-1H-inden-5-yl}-1H-pyrazolo[3,4-b]pyridin-3-yl)-2,3,4,5-tetrahydro-1,4-benzoxazepin-5-one]"
< 100 nM,< 100 nM,"Cc1cc2c(cc1-c1n[nH]c3ncc(-c4ccc5c(c4)CCC(N4CCC[C@H]4C)CC5)cc13)OCCNC2=O (stereo partly drawn) [Example 40, 7-Methyl-8-(5-{7-[(2R)-2-methylpyrrolidin-1-yl]-6,7,8,9-tetrahydro-5H-benzo[7]annulen-2-yl}-1H-pyrazolo[3,4-b]pyridin-3-yl)-2,3,4,5-tetrahydro-1,4-benzoxazepin-5-one]"
